Broadly, the IC50 is the concentration needed to halve the response being measured. High values mean weaker potency in that assay, low ones greater potency in that assay.

One assay addresses T1, p110α (Homo sapiens, UniProt P42336).
T1 construct: His-tag; made in house; host or cells: Sf9 insect cells (baculovirus)
Put plainly: Biochemical PI3K inhibition assay, p110α. Particulars: for IC50: 10 μM ATP, two hours; for effect of substitution on PI3Kα potency/selectivity (in words): SAR discussion. The procedure: PIK3CD was generously provided by Novartis Pharmaceuticals. […] Sf9 cells were lysed in a buffer containing 50 mM sodium phosphate, pH 8.0, 400 mM NaCl, 5% glycerol, 1% Triton X-100, 10 mM 2-mercaptoethanol, 1 mM orthovanadate, 10 mM imidazole, and sonicated on ice for 1 minute. Proteins were purified by adding Ni-NTA Superflow beads (Qiagen, Valencia, CA, USA) to the lysate and subsequent rolling for 30 min at 4°C. Beads were washed twice with 50 mM phosphate buffer, pH 8.0, 0.5 M NaCl, 50 mM Imidazole, 2 mM DTT and eluted in the same buffer but with 200 mM imidazole. Purified PI3K's were mixed 1:1 with glycerol and stored at -20°C.
J-series inhibitors were dissolved, serial diluted in DMSO and deposited into 96 well plates at a final DMSO concentration of 1%. We used a novel assay to determine their potency and selectivity. […] Reactions were timed after the addition of 10 μM ATP with 40 μCi/ml γ-32P-ATP (PerkinElmer, Waltham, MA, USA) and 2 mM MgCl2 (all final concentrations). The reactions were terminated after two hours by the addition of 2 N HCl and the lipids extracted with 1:1 MetOH/Chloroform. Radio-labeled phosphatidyl-inositol-3-phosphate in the extracted organic fraction was quantified after the addition of Microscint O (PerkinElmer) using a TopCount 96 well plate scintillation counter (PerkinElmer). IC50 concentrations and inhibition curves were calculated using Prism 5 (GraphPad Software, La Jolla, CA).

Assay [1] deals with Intraspleenic-injected HCT116 liver and lung metastases. Put plainly: Intraspleenic tumor model (metastasis). The format is in vivo, mice. To be noted: 150 mg/kg IP daily, three weeks. The protocol: Intraspleenic-injected HCT116 liver and lung metastases in NOD.Cg-Prkdcscid Il2rgtm1Wjl/SzJ mice (Jackson Laboratory, Bar Harbor, ME, USA) were generated as described in Erikson et. al.. J-series compounds were solubilized in 1:1 DMSO/Cremophor EL (Sigma-Aldrich) and diluted 2.3-fold in water to a final concentration of 7.5 mg/ml. 400 μl of this formulation (150 mg/kg) was injected intraperitoneally (IP) once a day for three weeks, beginning the third day post-surgery. Mice were sacrificed after the treatment and the liver, lungs, and spleen sampled. DNA was extracted from organs with the DNeasy Blood & Tissue Kit (Qiagen). The qPCR assay used for quantification of human DNA in mouse organs has been described. All mouse protocols were designed in accordance with the NIH Guide for the Care and Use of Laboratory Animals and approved by the Institutional Animal Care and Use Committee.

The next assay deals with T2, p110β (Homo sapiens, UniProt P42338).
T2 construct: His-tag; made in house; host or cells: Sf9 insect cells (baculovirus)
T2 sequence (P42338 whole entry): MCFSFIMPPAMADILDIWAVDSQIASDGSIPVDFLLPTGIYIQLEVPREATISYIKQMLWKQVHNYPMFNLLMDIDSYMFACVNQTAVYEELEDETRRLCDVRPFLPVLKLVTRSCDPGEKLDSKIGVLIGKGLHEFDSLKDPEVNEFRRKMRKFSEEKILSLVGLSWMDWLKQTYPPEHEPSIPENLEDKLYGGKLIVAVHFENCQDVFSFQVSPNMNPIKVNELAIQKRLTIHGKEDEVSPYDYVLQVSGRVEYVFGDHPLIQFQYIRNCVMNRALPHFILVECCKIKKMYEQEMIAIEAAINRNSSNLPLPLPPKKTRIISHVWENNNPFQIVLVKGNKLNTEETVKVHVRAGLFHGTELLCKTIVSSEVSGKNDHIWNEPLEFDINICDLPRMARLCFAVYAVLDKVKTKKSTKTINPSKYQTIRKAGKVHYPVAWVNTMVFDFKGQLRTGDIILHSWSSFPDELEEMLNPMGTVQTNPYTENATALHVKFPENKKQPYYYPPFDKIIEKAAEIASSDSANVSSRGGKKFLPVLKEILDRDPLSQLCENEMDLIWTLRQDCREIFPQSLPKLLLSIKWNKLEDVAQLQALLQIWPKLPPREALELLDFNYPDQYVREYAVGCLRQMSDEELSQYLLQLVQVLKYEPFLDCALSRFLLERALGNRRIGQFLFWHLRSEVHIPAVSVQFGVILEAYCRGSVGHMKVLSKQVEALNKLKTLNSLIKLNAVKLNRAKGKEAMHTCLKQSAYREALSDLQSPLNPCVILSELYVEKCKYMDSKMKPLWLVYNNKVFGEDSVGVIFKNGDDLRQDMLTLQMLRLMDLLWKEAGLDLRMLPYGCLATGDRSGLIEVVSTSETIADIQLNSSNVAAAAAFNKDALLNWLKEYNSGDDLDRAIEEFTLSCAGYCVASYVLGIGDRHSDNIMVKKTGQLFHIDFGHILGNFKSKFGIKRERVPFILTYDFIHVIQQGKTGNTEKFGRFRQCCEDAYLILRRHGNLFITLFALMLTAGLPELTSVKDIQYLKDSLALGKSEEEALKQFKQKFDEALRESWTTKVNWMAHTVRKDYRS
T2 sequence (P27986 322-600 partner limits assumed): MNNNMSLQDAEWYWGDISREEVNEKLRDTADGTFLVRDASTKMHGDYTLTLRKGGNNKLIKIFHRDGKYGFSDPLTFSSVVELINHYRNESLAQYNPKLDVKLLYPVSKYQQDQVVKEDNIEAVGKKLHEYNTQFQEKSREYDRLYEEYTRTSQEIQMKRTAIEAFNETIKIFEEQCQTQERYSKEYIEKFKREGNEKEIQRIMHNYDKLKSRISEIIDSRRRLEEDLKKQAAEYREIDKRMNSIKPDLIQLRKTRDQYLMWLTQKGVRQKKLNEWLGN
The assay can be described thus: Biochemical PI3K inhibition assay, p110β. To be noted: 10 μM ATP, two hours. The text has this:
(§1) cDNA clones of PIK3CA, PIK3CB and PIK3CG were obtained from Origene (Rockville, MD, USA). PIK3CD was generously provided by Novartis Pharmaceuticals. The cDNA clones were sub-cloned into pFastBac His-Tag (Invitrogen, Carlsbad, CA, USA) and baculovirus clones were generated by the Bac-to-Bac expression system (Invitrogen). p110α, p110β and p110δ were co-expressed in Sf9 insect cells (Invitrogen) with a nSH2-iSH2 fragment of the regulatory subunit p85 comprising AA residues 322 to 600 [4]. p110γ was expressed without a regulatory subunit. Sf9 cells were lysed in a buffer containing 50 mM sodium phosphate, pH 8.0, 400 mM NaCl, 5% glycerol, 1% Triton X-100, 10 mM 2-mercaptoethanol, 1 mM orthovanadate, 10 mM imidazole, and sonicated on ice for 1 minute. Proteins were purified by adding Ni-NTA Superflow beads (Qiagen, Valencia, CA, USA) to the lysate and subsequent rolling for 30 min at 4°C. Beads were washed twice with 50 mM phosphate buffer, pH 8.0, 0.5 M NaCl, 50 mM Imidazole, 2 mM DTT and eluted in the same buffer but with 200 mM imidazole. Purified PI3K's were mixed 1:1 with glycerol and stored at -20°C.
(§2) J-series inhibitors were dissolved, serial diluted in DMSO and deposited into 96 well plates at a final DMSO concentration of 1%. We used a novel assay to determine their potency and selectivity. In brief, micelles of 2.5 μg L-a-Phosphatidylinositol and 2.5 μg 1,2-Diacyl-sn-glycero-3-phospho-L-serine were formed by sonication, mixed with the individual PI3K isoforms and added to the drug dilutions in a reaction buffer containing 10 mM HEPES, 25 mM NaCl, 0.125 μg/μl BSA, and 2 mM BME (final concentrations). Reactions were timed after the addition of 10 μM ATP with 40 μCi/ml γ-32P-ATP (PerkinElmer, Waltham, MA, USA) and 2 mM MgCl2 (all final concentrations). The reactions were terminated after two hours by the addition of 2 N HCl and the lipids extracted with 1:1 MetOH/Chloroform. Radio-labeled phosphatidyl-inositol-3-phosphate in the extracted organic fraction was quantified after the addition of Microscint O (PerkinElmer) using a TopCount 96 well plate scintillation counter (PerkinElmer). IC50 concentrations and inhibition curves were calculated using Prism 5 (GraphPad Software, La Jolla, CA).

The next assay has as its target T3, p110δ (Homo sapiens, UniProt O00329).
T3 construct: His-tag; made in house; host or cells: Sf9 insect cells (baculovirus)
The assay can be described thus: Biochemical PI3K inhibition assay, p110δ. Particulars: 10 μM ATP, two hours.
Excerpt: as §1, §2

In another assay the target is T4, p110γ (Homo sapiens, UniProt P48736).
T4 construct: His-tag; made in house; host or cells: Sf9 insect cells (baculovirus)
T4 sequence (P48736 whole entry): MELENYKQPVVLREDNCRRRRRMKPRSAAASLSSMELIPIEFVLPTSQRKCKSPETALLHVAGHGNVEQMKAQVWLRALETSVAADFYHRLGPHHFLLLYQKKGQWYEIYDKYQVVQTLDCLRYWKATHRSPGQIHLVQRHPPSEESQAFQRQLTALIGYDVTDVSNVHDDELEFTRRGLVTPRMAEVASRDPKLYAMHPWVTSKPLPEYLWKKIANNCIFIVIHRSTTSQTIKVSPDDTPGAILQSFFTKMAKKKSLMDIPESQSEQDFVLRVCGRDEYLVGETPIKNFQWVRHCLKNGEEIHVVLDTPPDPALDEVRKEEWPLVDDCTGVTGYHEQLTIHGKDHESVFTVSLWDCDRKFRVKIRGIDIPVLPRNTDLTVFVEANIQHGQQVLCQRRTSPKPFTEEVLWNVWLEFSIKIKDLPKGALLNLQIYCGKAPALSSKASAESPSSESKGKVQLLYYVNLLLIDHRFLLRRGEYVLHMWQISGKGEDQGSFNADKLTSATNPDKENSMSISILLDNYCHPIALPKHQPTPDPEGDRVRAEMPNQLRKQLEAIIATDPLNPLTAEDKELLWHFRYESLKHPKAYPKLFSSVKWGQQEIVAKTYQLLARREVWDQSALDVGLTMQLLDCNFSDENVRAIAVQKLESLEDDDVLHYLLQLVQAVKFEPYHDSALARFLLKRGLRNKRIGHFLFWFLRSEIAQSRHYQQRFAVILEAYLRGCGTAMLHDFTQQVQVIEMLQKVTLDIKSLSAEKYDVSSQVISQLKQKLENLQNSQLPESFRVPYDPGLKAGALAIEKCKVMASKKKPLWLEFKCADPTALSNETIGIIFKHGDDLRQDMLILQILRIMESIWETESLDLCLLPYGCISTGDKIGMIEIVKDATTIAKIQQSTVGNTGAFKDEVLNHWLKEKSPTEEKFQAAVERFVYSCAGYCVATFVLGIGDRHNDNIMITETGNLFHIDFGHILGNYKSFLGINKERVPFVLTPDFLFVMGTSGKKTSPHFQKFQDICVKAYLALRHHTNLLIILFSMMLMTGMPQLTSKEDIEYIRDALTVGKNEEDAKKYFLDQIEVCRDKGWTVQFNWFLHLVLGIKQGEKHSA
The assay can be described thus: Biochemical PI3K inhibition assay, p110γ. Particulars: 10 μM ATP, two hours; no regulatory subunit.
Excerpt: as §1, §2

Assay [2] concerns subcutaneous HCT116 xenograft tumors. Put plainly: Xenograft tumor model. Format: in vivo. To be noted: nude mice, 150 mg/kg IP daily for three weeks. The protocol: (§3) Tumor xenografts were established by injecting 5x10^6 HCT116 cells subcutaneously into the right flanks of female nude mice. Tumor volume was measured twice weekly using electronic calipers and calculated as length x width^2 x 0.5. After tumors reached an average volume of 50 mm^3, animals were treated daily with drugs at 150 mg/kg via IP injection for three weeks. Tumor phospho-Akt levels were determined following harvest on the last day of the study. Xenografts were excised, snap frozen in liquid nitrogen and pulverized with a pestle. Homogenized tissue was re-suspended in lysis buffer (Cell Signaling Technology) and protein contents normalized by Bradford assay (Bio-Rad Laboratories, Hercules, CA, USA). Western blots were performed as described above.

Assay [3] relates to phosphorylation of Akt1 and Akt2 in HCT116 cells. The assay can be described thus: P-Akt western analysis in cells. Format: cell-based, human. Particulars: 6 hours, concentrations that inhibited cell growth. The procedure:
Phopspho-Akt levels were assayed in HCT116 cells. 1x10^6 cells/well were seeded in six-well plates and serum starved for 2 hours in McCoy's 5A medium. Drugs were pre-mixed with complete medium containing 10% FBS and incubated with the cells for 6 hours. Cells were lysed on ice with 100 mM Tris-HCl, pH 7.0, 10% 2-mercaptoethanol, 4% SDS, 20% glycerol, 0.05% Bromophenol blue, 20 μl 1 mM NaF, 1 mM Na3VO4, and Complete Protease Inhibitor Cocktail Tablet (Roche, Nutley, NJ, USA) without EDTA and sonicated for 30 seconds. Phospho-Akt was assayed with Phospho-Akt (Ser473) antibody (#9271, Cell Signaling Technology, Danvers, MA, USA). Subsequently the membrane was stripped and incubated with Akt1 (D-17) antibody (sc-7126, Santa Cruz Biotechnology,Santa Cruz, CA, USA)) for loading control.

Assay [4] concerns P-Akt in HCT116 xenografts. The assay can be described thus: Intra-tumor P-Akt levels in xenografts. The format is in vivo, nude mice. Particulars: post IP injection. The protocol: as §3

Structures are written as SMILES.

T3 sequence (O00329 whole entry): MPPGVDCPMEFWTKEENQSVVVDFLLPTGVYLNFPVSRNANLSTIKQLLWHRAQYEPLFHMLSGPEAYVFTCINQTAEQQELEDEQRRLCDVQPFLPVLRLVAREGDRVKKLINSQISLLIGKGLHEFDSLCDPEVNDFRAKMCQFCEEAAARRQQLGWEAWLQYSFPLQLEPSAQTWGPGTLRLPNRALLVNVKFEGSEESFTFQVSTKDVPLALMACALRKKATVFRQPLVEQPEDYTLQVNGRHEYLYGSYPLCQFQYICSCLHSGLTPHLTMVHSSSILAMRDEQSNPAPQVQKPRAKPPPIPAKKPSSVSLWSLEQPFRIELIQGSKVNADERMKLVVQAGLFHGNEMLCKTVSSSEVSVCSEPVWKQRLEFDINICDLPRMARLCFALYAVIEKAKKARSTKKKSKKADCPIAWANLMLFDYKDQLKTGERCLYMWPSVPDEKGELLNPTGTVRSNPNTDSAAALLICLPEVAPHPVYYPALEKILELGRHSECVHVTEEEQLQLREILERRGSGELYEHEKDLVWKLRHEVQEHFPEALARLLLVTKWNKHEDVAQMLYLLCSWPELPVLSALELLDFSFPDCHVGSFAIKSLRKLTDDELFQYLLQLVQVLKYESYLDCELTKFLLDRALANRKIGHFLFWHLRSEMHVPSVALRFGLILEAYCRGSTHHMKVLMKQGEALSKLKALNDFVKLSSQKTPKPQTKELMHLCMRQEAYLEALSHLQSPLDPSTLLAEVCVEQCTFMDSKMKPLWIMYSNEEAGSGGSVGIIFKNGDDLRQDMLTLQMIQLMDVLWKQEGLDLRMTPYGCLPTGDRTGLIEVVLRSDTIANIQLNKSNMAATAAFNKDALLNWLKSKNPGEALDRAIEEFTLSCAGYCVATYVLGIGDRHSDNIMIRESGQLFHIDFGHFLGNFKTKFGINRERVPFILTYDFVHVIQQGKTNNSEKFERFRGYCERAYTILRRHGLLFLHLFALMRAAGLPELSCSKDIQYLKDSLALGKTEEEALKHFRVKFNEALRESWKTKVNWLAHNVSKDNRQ
T3 sequence (P27986 322-600 partner limits assumed): as the sequence (P27986 322-600 partner limits assumed) above
T1 sequence (P42336 whole entry): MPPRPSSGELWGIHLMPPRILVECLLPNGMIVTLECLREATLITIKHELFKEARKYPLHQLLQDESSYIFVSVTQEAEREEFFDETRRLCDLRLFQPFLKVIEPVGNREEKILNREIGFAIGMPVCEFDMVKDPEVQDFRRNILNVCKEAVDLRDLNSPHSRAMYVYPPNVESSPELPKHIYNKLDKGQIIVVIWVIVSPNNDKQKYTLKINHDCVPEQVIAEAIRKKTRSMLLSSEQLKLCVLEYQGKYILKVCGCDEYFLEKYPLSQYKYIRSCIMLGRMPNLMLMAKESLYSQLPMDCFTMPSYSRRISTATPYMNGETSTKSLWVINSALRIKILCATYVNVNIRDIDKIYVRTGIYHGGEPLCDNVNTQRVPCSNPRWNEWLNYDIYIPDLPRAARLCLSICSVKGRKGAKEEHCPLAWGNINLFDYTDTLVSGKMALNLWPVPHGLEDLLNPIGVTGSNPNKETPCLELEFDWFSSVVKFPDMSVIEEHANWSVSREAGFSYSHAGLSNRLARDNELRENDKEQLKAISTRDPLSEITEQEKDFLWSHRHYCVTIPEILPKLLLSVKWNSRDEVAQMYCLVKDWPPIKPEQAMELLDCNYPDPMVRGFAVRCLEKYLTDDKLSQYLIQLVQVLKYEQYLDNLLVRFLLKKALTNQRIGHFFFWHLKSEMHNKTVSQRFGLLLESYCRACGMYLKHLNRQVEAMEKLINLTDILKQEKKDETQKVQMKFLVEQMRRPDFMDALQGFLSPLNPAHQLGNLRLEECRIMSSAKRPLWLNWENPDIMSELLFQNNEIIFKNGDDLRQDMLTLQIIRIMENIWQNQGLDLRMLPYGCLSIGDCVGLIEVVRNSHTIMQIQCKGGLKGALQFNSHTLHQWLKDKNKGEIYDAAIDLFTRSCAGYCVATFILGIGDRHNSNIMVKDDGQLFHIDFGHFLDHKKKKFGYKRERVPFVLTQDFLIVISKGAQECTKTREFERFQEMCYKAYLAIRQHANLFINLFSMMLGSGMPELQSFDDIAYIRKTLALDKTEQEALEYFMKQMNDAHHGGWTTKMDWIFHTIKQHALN
T1 sequence (P27986 322-600 partner limits assumed): as the sequence (P27986 322-600 partner limits assumed) above

Regarding `CCN(/N=C/c1cnc2ccc(Br)cn12)S(=O)(=O)c1cc([N+](=O)[O-])c(N)cc1Cl` [J128], the IC50 at p110α came to 4 nM; against p110β, 130 nM; at p110δ, 110 nM; on p110γ, 250 nM. For the same molecule, the “metastatic lesions in the lungs” value in assay [1] is on record as “no lesions”. Moreover, in assay [1] (compared to vehicle), the “metastatic foci in the liver (histopathology)” value is recorded as “few, if any, metastatic foci”. Further, the “reduction in primary tumor burden in the spleen (real-time PCR)” value in assay [1] (compared to vehicle) is ~ 50%. Also, in assay [1] (compared to vehicle), the “reduction of metastatic liver burden (real-time PCR)” value is 9 fold.
`CCN(/N=C/c1cnc2ccc(Br)cn12)S(=O)(=O)c1cc([N+](=O)[O-])c(O)cc1C` [J129]: the IC50 at p110α was 20 nM; on p110β, 510 nM; on p110δ it was 66 nM; at p110γ, 150 nM. Moreover, the “effect of substitution on PI3Kα potency/selectivity (in words)” value on p110α is reported as “did not impact the inhibitory activity for PI3Kα substantially”.
As for `CCN(/N=C/c1cnc2ccc(Br)cn12)S(=O)(=O)c1cc([N+](=O)[O-])ccc1C` [J32], the IC50 was found to be 15 nM at p110α, 1200 nM at p110β, 1400 nM against p110δ and 620 nM at p110γ. Further, the “increase of selectivity against the other three isoforms” value on p110α (J32 versus J27) was “up to 8 fold”. Besides, on p110α, the “effect of substitution on PI3Kα potency/selectivity (in words)” value is “potency for PI3Kα was retained”. For the same molecule, the “anti-tumor activity against subcutaneous HCT116 xenograft tumors” value in assay [2] is recorded as “Only a minor anti-tumor activity”.
For `CCN(/N=C/c1cnc2ccc(Br)cn12)S(=O)(=O)c1cc(C(=O)O)ccc1C` [J100], the IC50 at p110α was found to be 121 nM; against p110β, 2000 nM; against p110δ, 173 nM; against p110γ, 5120 nM. The “effect of substitution on PI3Kα potency/selectivity (in words)” value at p110α was “impaired potency”.
The matching figures for `CCN(/N=C/c1cnc2ccc(Br)cn12)S(=O)(=O)c1cc(S(C)(=O)=O)ccc1C` [J41]: 23200 nM, 235000 nM, 3550 nM, 253000 nM and “impaired potency”.
Regarding `CCN(/N=C/c1cnc2ccc(Br)cn12)S(=O)(=O)c1cc([N+](=O)[O-])c(N)cc1C` [J124-I], the IC50 amounted to 2 nM at p110α, 46 nM against p110β, 26 nM on p110δ and 73 nM at p110γ. Besides, the “increase of inhibitory activity for PI3Kα” value at p110α (compared to J32) is 7.5 fold. Also, the “phosphorylation of Akt1 and Akt2 (western blot)” value in assay [3] is recorded as “inhibitory effect”. The “intra-tumor P-Akt levels” value in assay [4] is reported as “reduced up to 3 hours”. Also, in assay [2], the “anti-tumor activity against subcutaneous HCT116 xenograft tumors” value is “Only a minor anti-tumor activity”.

The record behind these values is PMC3004370, “PI3Kα Inhibitors That Inhibit Metastasis” (Oncotarget, 2010).
